Laboratory results from PubChem BioAssay (NCI).
Where “and” joins values, the source holds several entries; their conditions need not be identical. Equal values may be shown once.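 Cultured in 96-well plates, cells were exposed to test compound for 48 hours across five concentrations. Abbreviation: GI50, concentration required for 50% inhibition of growth. TGI: total growth inhibition.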

What was measured:
Assay in all cases: NCI tumour cell line growth inhibition, 48 h
DMS 273 small cell lung = tested on: DMS 273 small cell lung
SNB-78 CNS = tested on: SNB-78 CNS
LXFL 529 NSCLC = tested on: LXFL 529 NSCLC
M19-MEL melanoma = tested on: M19-MEL melanoma
DMS 114 small cell lung = tested on: DMS 114 small cell lung
P388/ADR leukemia = tested on: P388/ADR leukemia
P388 leukemia = tested on: P388 leukemia
HOP-18 NSCLC = tested on: HOP-18 NSCLC
SN12K1 renal = tested on: SN12K1 renal
RXF-631 renal = tested on: RXF-631 renal

COC(=O)C1CCC(=O)N1C(=O)Cc1ccc(OC)cc1 (stereo unspecified)
TGI (DMS 273 small cell lung): > 100 µM
TGI (SNB-78 CNS): > 100 µM
TGI (LXFL 529 NSCLC): > 100 µM
TGI (M19-MEL melanoma): > 100 µM
TGI (DMS 114 small cell lung): > 100 µM

Cc1ccc(C(C)(C)C[P+](C)(c2ccccc2)c2ccccc2)cc1
TGI (P388/ADR leukemia): > 100 µM
TGI (DMS 273 small cell lung): 23.8 µM
TGI (P388 leukemia): 12.3 µM
TGI (HOP-18 NSCLC): > 47.8 µM
TGI (SN12K1 renal): > 90.7 µM
TGI (SNB-78 CNS): 88.1 µM
TGI (M19-MEL melanoma): > 89 µM
TGI (DMS 114 small cell lung): 35.6 µM

Nc1cccc2c1C(=O)c1cccc(N)c1C2=O
TGI (DMS 273 small cell lung): > 100 µM
TGI (RXF-631 renal): > 100 µM
TGI (SNB-78 CNS): > 100 µM
TGI (LXFL 529 NSCLC): > 100 µM
TGI (M19-MEL melanoma): > 100 µM

Cc1ccccc1-n1c(C)nc2c1C(=O)c1ccccc1C2=O
TGI (DMS 273 small cell lung): > 100 µM
TGI (SNB-78 CNS): > 100 µM
TGI (M19-MEL melanoma): 48.5 µM
TGI (DMS 114 small cell lung): 87 µM

[Cl][Pt+2][Cl].[NH-]C1CCCCC1[NH-] (stereo unspecified)
GI50 (P388/ADR leukemia): 4.69 µM and 2.22 µM and 0.629 µM
TGI (P388/ADR leukemia): 98.9 µM and > 100 µM and > 52.4 µM
TGI (P388 leukemia): 6.91 µM and 7.39 µM and 2.14 µM
GI50 (HOP-18 NSCLC): 25.6 µM and > 100 µM and 28.4 µM
TGI (HOP-18 NSCLC): > 100 µM
TGI (SN12K1 renal): > 100 µM
GI50 (SNB-78 CNS): 29 µM and 30 µM and 11.5 µM
TGI (SNB-78 CNS): > 100 µM
TGI (M19-MEL melanoma): 23.9 µM and 25.7 µM and 10.6 µM
